The results in this text go back to US8828696B2, “Use of Penicillin G Procaine as a selective antimicrobial agent in the production of alcohol by fermentation” (Lallemand Specialites, Inc, priority 2008, dated 2014).

Several values for one entry are separate records, joined by “and”; a condition that tells them apart may be missing. Identical values can stand only once.

One assay concerns Lactobacillus fermentum. Kind of assay: Comparative efficacy analysis Virginiamycin vs. Penicillin G Procaine, growth in MRS broth, 24 well plate. Format: cell-based. The source says: The most commonly found microorganism in fuel ethanol producing plants is the Lactobacillus fermentum bacterium and is considered as an “industry normal” bacterium. This example compares the use of a Bactenix® line of products, Penicillin G Procaine-antibiotic versus Virginiamycin-antibiotic to control “industry normal” Lactobacillus fermentum bacterium. This trial uses an alcohol water mixture to assure total dissolving of antibiotics. This assures that the correct concentrations of antibiotics are going into the test wells and thereby preventing under dosing during the trial. All bacteria tested were industry specific isolates that were obtained from actual corn mash samples from fermentation alcohol production plants. The trial was set up as follows: • 1. Dissolve 0.1 g of each of the antibiotics in 1 ml water and then add 5 ml of ethanol, vortex and bring up to 10 ml with sterile water to from a suspension. • 2. Dilute the previous suspension 1:10 with sterile water. This gives a one mg/ml concentration. • 3. Filter the suspension by running through a 0.2 μm syringe filter. • 4. Add four μl broth in a centrifuge then add antibiotics to MRS (DeMan, Rogosa and Sharpe) broth at the concentrations required for the test. • 5. Take four μl of a fresh 24-hour culture of the target organisms and add to the corresponding empty wells in a pre-labeled 24 well tissue culture plate. • 6. Pipette one ml of the appropriate antibiotic media to each well of the plate. • 7. Incubate at 33° C. for 24 hours. • 8. Read plates for bacterial growth and re-incubate the plates at 33° C. • 9. After 48 hours read and report the final results.

The subject of another assay is contaminating bacteria. Kind of assay: Alcohol production plant trial, fermentor drop data (50 m/g/y dry grind, corn). To be noted: 0.5 ppm. Format: cell-based. On the procedure:
This trial was conducted at a 50 million gallon per year (m/g/y) dry grind fuel alcohol production facility utilizing corn as a fermentation substrate. Batch yeast propagation and fermentation process were utilized. Antimicrobials were added to the fermentor during the fill cycle at approximately 30% fill.
No other changes were made to the process or chemical additions that would influence the fermentation kinetics monitored during 3 sets of fermentor batches listed below. The fermentation data was accumulated at the end (drop) of the fermentation process for each of the fermentors. Fermentation kinetics was measured for three batch cycles including:
Set 1—“Pre Penicillin G Procaine trial”-10 fermentor batches using a level of 0.5 ppm Virginiamycin. See results in Table 2.
Set 2—“Penicillin G Procaine trial”-10 fermentor batches using a level of 0.5 ppm of Penicillin G Procaine. See results in Table 3.
Set 3—“Post Penicillin G Procaine trial”-10 fermentor batches using a level of 0.5 ppm of Virginiamycin. See results in Table 4.

The mark [1] stands for this setting: Set 1 'Pre Penicillin G Procaine trial', 10 Batch average.
Where [2] appears, read: Set 1 'Pre Penicillin G Procaine trial', drop data, single fermentor batch.
The mark [3] stands for this setting: Set 3 'Post Penicillin G Procaine trial', 10 Batch average.
Setting [4] is: Set 3 'Post Penicillin G Procaine trial', drop data, single fermentor batch.

As to Virginiamycin, in the assay on Lactobacillus fermentum (at 0.5 ppm, as per table 1), the “inhibition of growth of the 'industry normal' bacteria” value is “did not seem to inhibit the growth”. In the assay with Lactobacillus fermentum (dosage of above 1 ppm, compared with Penicillin G Procaine), the “effectiveness against Lactobacillus fermentum” value is “comparable effectiveness as Penicillin G Procaine”. Also, the “concentration from which effective against Lactobacillus fermentum” value in the assay with Lactobacillus fermentum (industry standard L. fermentum isolate, MRS broth, 33° C., read at 24 and 48 hours) is listed as more than 0.5 ppm. Also, in the assay on contaminating bacteria (setting [1]), the Acetic % is given as 0.04%, the EtOH v/v % was 15.48 v/v %, the Glucose % was 0.29% and the Lactic % is 0.64%. For the same substance, in the assay on contaminating bacteria (setting [2]), the Acetic % was 0.02% and 0.04% and 0.13% and 0.03%; the Glucose % was 0.36% and 0.27% and 0.26% and 0.31% and 0.29% and 0.3% and 0.16%; the Lactic % was 0.59% and 0.71% and 0.85% and 0.56% and 0.79% and 0.584% and 0.41%. Also, in the assay on contaminating bacteria (setting [3]), the Acetic % came to 0.04%, the EtOH v/v % worked out at 15.49 v/v %, the Glucose % turned out to be 0.30% and the Lactic % was found to be 0.57%. In the assay on contaminating bacteria (setting [4]), the Acetic % is 0.05% and 0.04% and 0.03%; the Glucose % is 0.26% and 0.35% and 0.29% and 0.32% and 0.30% and 0.33% and 0.25%.
